Holding throughout (format): cell-based
The target of assay [1] is T1, GIP receptor (Homo sapiens, UniProt P48546).
T1 sequence (P48546 22-466): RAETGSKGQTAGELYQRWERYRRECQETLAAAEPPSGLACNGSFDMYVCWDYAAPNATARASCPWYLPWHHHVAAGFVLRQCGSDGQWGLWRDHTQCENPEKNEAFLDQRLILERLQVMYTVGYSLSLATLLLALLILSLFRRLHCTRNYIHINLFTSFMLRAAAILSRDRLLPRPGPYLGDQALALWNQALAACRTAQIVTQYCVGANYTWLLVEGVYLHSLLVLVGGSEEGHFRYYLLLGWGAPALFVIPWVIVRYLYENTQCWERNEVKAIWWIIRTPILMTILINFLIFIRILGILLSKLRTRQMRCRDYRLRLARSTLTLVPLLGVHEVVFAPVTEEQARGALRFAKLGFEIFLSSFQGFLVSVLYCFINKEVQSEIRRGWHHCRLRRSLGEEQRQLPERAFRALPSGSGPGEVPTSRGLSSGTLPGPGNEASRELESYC
In words: PathHunter β-arrestin assay, GIP receptor. The conditions noted are these: β-arrestin-2 recruitment, PathHunter CHO-K1 GIPR β-Arrestin Cell Line, 90 min at 37° C.; normalized to GIP; read-out: GIPR β Arrestin EC50. Also on record: host or cells: PathHunter CHO-K1 GIPR β-Arrestin Cell Line. In general terms: Arrestin recruitment assays detect the binding of arrestin to an activated receptor.

The target of assay [2] is T2, GLP-1 receptor (Homo sapiens, UniProt P43220). In words: PathHunter β-arrestin assay, GLP-1 receptor. Also on record: host or cells: PathHunter CHO-K1 GLP1R β-Arrestin Cell Line. The note with it: β-arrestin-2 recruitment, PathHunter CHO-K1 GLP1R β-Arrestin Cell Line, 90 min at 37° C.; normalized to GLP-1; read-out: GLP-1R β Arrestin EC50.
T2 sequence (P43220 24-463): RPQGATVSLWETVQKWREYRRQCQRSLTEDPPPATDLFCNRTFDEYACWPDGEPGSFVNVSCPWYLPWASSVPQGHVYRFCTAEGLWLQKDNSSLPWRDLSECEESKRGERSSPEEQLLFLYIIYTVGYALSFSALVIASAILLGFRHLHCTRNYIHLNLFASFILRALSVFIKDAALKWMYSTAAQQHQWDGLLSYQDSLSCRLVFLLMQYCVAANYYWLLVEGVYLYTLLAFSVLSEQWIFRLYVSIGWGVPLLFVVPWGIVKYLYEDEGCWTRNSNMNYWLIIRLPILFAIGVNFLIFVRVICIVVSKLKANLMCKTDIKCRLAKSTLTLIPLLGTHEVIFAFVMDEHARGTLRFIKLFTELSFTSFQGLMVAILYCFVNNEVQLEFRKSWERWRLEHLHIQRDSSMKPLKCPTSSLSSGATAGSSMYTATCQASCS
Procedure: β-arrestin-2 recruitment for GLP-1 receptor or GIP receptor was measured using the DiscoverX PathHunter Detection Kit and PathHunter® CHO-K1 GLPIR β-Arrestin Cell Line or PathHunter® CHO-K1 GIPR β-Arrestin Cell Line, respectively). Briefly, cells were grown in Ham's F12 Nutrient Mix with 10% FBS and lifted with Cell dissociation buffer, Enzyme free, PBS based (ThermoFisher). Harvested cells were pelleted and resuspended in Assay Complete Cell Plating Reagent 2 and 5000 cells per well were plated in tissue culture treated 384-well small volume white assay plates. Plates were then incubated at 37° C. and 5% CO2 overnight. The media was then replaced with fresh Assay Complete Cell Plating Reagent 2. Cells were then treated with 10 nl compound in DMSO using an ECHO 550 acoustic dispenser (Labcyte) in a 20-point dose response format in duplicate for 90 min at 37° C. The assay was then completed according to the manufacturer's instructions. Luminescence was measured using a Perkin Elmer Envision plate reader. Raw data was normalized to the maximum signal from GLP-1 or GIP (high) and DMSO (low). Dose response curves were analyzed using GraphPad Prism 9.0.
Assay [3] concerns the target T1, GIP receptor. Description: HitHunter cAMP assay, GIP receptor. The note with it: for EC50: CHO cells stably expressing GIP receptor, cAMP accumulation, 30 min, read-out: EC50 GIP-1R; for Emax: CHO cells, cAMP, normalized to maximum signal from GIP (high) and DMSO (low), read-out: Emax GIP-1R.
Assay [4] concerns the target T2, GLP-1 receptor. Description: HitHunter cAMP assay, GLP-1 receptor. The conditions noted are these: for EC50: CHO cells stably expressing human GLP-1 receptor, cAMP accumulation, 30 min, read-out: EC50 GLP-1R; for Emax: CHO cells, cAMP, normalized to maximum signal from GLP-1 (high) and DMSO (low), read-out: Emax GLP-1R. Background: Cyclic AMP is a second messenger, typically raised through Gs and lowered through Gi signalling.

The values that follow come from US12281149B2, “Modulators of G-protein coupled receptors” (priority 2021, dated 2025).

The structures appear in SMILES notation. *1 amine or outer side, *2 acyl side, *3 side chain or, on linkers, in order; H or OH if unused. Where a SMILES comes first, the peptide text is derived from it. Side-chain parts run from the residue outwards. [ ]: non-standard residue; d: D form. The star is where a group is joined. Isobutyryl(2-(3-CN-5-F-Ph)) = CC(C)(C(=O)*)c1cc(F)cc(C#N)c1; C20 diacid = O=C(O)CCCCCCCCCCCCCCCCCCC(=O)*; αMePhe(2-F) = C[C@](N)(Cc1ccccc1F)C(=O)O; γGlu = O=C(O)[C@H](CCC(=O)[*:2])N[*:1]; Phe(2-F) = N[C@@H](Cc1ccccc1F)C(=O)O; X30 = CC(C)(C(=O)*)c1ccc(F)cc1; X1 = CC(C)(C(=O)*)c1cccnc1; AEEA = NCCOCCOCC(=O)O; Aib = CC(C)(N)C(=O)O; CO = O=C([*:1])[*:2]; X12 = Fc1cccc(N*)c1; GABA = NCCCC(=O)O; βAla = NCCC(=O)O

The EC50 is the concentration that produces a half-maximal response. The Emax is the maximal effect, on the per cent scale that the assay sets. `CC[C@H](C)[C@H](NC(=O)[C@H](CC(C)C)NC(=O)[C@H](Cc1c[nH]c2ccccc12)NC(=O)[C@H](CCC(N)=O)NC(=O)[C@@H](NC(=O)[C@H](Cc1ccccc1)NC(=O)[C@H](C)NC(=O)[C@H](CCCCNC(=O)COCCOCCNC(=O)COCCOCCNC(=O)CC[C@H](NC(=O)CCCCCCCCCCCCCCCCCCC(=O)O)C(=O)O)NC(=O)[C@H](CCC(N)=O)NC(=O)[C@H](C)NC(=O)[C@@H](NC(=O)[C@H](CCCCN)NC(=O)[C@H](CC(=O)O)NC(=O)[C@H](CC(C)C)NC(=O)C(C)(C)NC(=O)[C@@H](NC(=O)[C@H](CO)NC(=O)[C@H](Cc1ccc(O)cc1)NC(=O)[C@H](CC(=O)O)NC(=O)[C@H](CO)NC(=O)[C@@H](NC(=O)[C@H](Cc1ccccc1F)NC(=O)[C@@H](NC(=O)CNC(=O)[C@H](CCC(=O)O)NC(=O)CCNC(=O)C(C)(C)c1cc(F)cc(C#N)c1)[C@@H](C)O)[C@@H](C)O)[C@@H](C)CC)[C@@H](C)CC)C(C)C)C(=O)N[C@@H](C)C(=O)NCC(=O)NCC(=O)N1CCC[C@H]1C(=O)N[C@@H](CO)C(=O)N[C@@H](CO)C(=O)NCC(=O)N[C@@H](C)C(=O)N1CCC[C@H]1C(=O)N1CCC[C@H]1C(=O)N1CCC[C@H]1C(=O)N[C@@H](CO)C(N)=O` [Compound 233] ({Isobutyryl(2-(3-CN-5-F-Ph))-βAla}-EGT[Phe(2-F)]TSDYSI[Aib]LDKIAQK([AEEA-AEEA-γGlu-C20 diacid])AFVQWLIAGGPSSGAPPPS-NH2): the EC50 in assay [1] is below 1000 nM; in assay [2], above 1000 nM; in assay [3] it was 0.1 to 1 nM; in assay [4], 0.1 to 1 nM. Also, the values for the Emax in assay [3] and in assay [4] were 109% and 121%, respectively.

Regarding `CC[C@H](C)[C@H](NC(=O)[C@H](CO)NC(=O)[C@H](Cc1ccc(O)cc1)NC(=O)[C@H](CC(=O)O)NC(=O)[C@H](CO)NC(=O)[C@@H](NC(=O)[C@H](Cc1ccccc1)NC(=O)[C@@H](NC(=O)CNC(=O)[C@H](CCC(=O)O)NC(=O)CCNC(=O)[C@]1(c2ccccc2)CNC(=O)C1)[C@@H](C)O)[C@@H](C)O)C(=O)N[C@@H](Cc1ccc(O)cc1)C(=O)N[C@@H](CC(C)C)C(=O)N[C@@H](CC(=O)O)C(=O)N[C@@H](CCCCN)C(=O)N[C@@H](CCCCNC(=O)COCCOCCNC(=O)COCCOCCNC(=O)CC[C@H](NC(=O)CCCCCCCCCCCCCCCCCCC(=O)O)C(=O)O)C(=O)N[C@@H](C)C(=O)N[C@@H](C)C(=O)NC(C)(C)C(=O)N[C@@H](CCC(=O)O)C(=O)N[C@@H](Cc1ccccc1)C(=O)N[C@H](C(=O)N[C@@H](CC(N)=O)C(=O)N[C@@H](Cc1c[nH]c2ccccc12)C(=O)N[C@@H](CC(C)C)C(=O)N[C@@H](CC(C)C)C(=O)N[C@@H](C)C(=O)NCC(=O)NCC(=O)N1CCC[C@H]1C(=O)N[C@@H](CO)C(=O)N[C@@H](CO)C(=O)NCC(=O)N[C@@H](C)C(=O)N1CCC[C@H]1C(=O)N1CCC[C@H]1C(=O)N1CCC[C@H]1C(=O)N[C@@H](CO)C(N)=O)C(C)C` (single isomer, unassigned) [Compound 113], the 50% effective concentration (EC50) was above 1000 nM in assay [1], above 1000 nM in assay [2], 1 to 10 nM in assay [3] and 0.1 to 1 nM in assay [4]. Moreover, the maximal response (Emax) came to 98% in assay [3] and 112% in assay [4].

Turning to `CC[C@H](C)[C@H](NC(=O)[C@H](CC(C)C)NC(=O)[C@H](Cc1c[nH]c2ccccc12)NC(=O)[C@H](CCC(N)=O)NC(=O)[C@@H](NC(=O)[C@H](Cc1ccccc1)NC(=O)[C@H](C)NC(=O)[C@H](CCCCNC(=O)COCCOCCNC(=O)COCCOCCNC(=O)CC[C@H](NC(=O)CCCCCCCCCCCCCCCCCCC(=O)O)C(=O)O)NC(=O)[C@H](CCC(N)=O)NC(=O)[C@H](C)NC(=O)[C@@H](NC(=O)[C@H](CCCCN)NC(=O)[C@H](CC(=O)O)NC(=O)[C@H](CC(C)C)NC(=O)C(C)(C)NC(=O)[C@@H](NC(=O)[C@H](CO)NC(=O)[C@H](Cc1ccc(O)cc1)NC(=O)[C@H](CC(=O)O)NC(=O)[C@H](CO)NC(=O)[C@@H](NC(=O)[C@](C)(Cc1ccccc1F)NC(=O)[C@@H](NC(=O)CNC(=O)[C@H](CCC(=O)O)NC(=O)CCCNC(=O)Nc1cccc(F)c1)[C@@H](C)O)[C@@H](C)O)[C@@H](C)CC)[C@@H](C)CC)C(C)C)C(=O)N[C@@H](C)C(=O)NCC(=O)NCC(=O)N1CCC[C@H]1C(=O)N[C@@H](CO)C(=O)N[C@@H](CO)C(=O)NCC(=O)N[C@@H](C)C(=O)N1CCC[C@H]1C(=O)N1CCC[C@H]1C(=O)N1CCC[C@H]1C(=O)N[C@@H](CO)C(N)=O` [Compound 282] ({X12-CO-GABA}-EGT[αMePhe(2-F)]TSDYSI[Aib]LDKIAQK([AEEA-AEEA-γGlu-C20 diacid])AFVQWLIAGGPSSGAPPPS-NH2), the concentration for a half-maximal effect (EC50) in assay [1] is above 1000 nM; in assay [2], above 1000 nM; in assay [3] it was 10 to 100 nM; in assay [4] it was 0.1 to 1 nM. In addition, the Emax was 90% in assay [3] and 92% in assay [4].

As for `CC[C@H](C)[C@H](NC(=O)[C@H](CC(C)C)NC(=O)[C@H](Cc1c[nH]c2ccccc12)NC(=O)[C@H](CCC(N)=O)NC(=O)[C@@H](NC(=O)[C@H](Cc1ccccc1)NC(=O)[C@H](C)NC(=O)[C@H](CCCCNC(=O)COCCOCCNC(=O)COCCOCCNC(=O)CC[C@H](NC(=O)CCCCCCCCCCCCCCCCCCC(=O)O)C(=O)O)NC(=O)[C@H](CCC(N)=O)NC(=O)[C@H](C)NC(=O)[C@@H](NC(=O)[C@H](CCCCN)NC(=O)[C@H](CC(=O)O)NC(=O)[C@H](CC(C)C)NC(=O)C(C)(C)NC(=O)[C@@H](NC(=O)[C@H](CO)NC(=O)[C@H](Cc1ccc(O)cc1)NC(=O)[C@H](CC(=O)O)NC(=O)[C@H](CO)NC(=O)[C@@H](NC(=O)[C@H](Cc1ccccc1)NC(=O)[C@@H](NC(=O)CNC(=O)[C@H](CCC(=O)O)NC(=O)CCNC(=O)C(C)(C)c1ccc(F)cc1)[C@@H](C)O)[C@@H](C)O)[C@@H](C)CC)[C@@H](C)CC)C(C)C)C(=O)N[C@@H](C)C(=O)NCC(=O)NCC(=O)N1CCC[C@H]1C(=O)N[C@@H](CO)C(=O)N[C@@H](CO)C(=O)NCC(=O)N[C@@H](C)C(=O)N1CCC[C@H]1C(=O)N1CCC[C@H]1C(=O)N1CCC[C@H]1C(=O)N[C@@H](CO)C(N)=O` [Compound 210] ({X30-βAla}-EGTFTSDYSI[Aib]LDKIAQK([AEEA-AEEA-γGlu-C20 diacid])AFVQWLIAGGPSSGAPPPS-NH2), the EC50 in assay [1] is above 1000 nM; in assay [2], above 1000 nM; in assay [3] it was 1 to 10 nM; in assay [4], 0.1 to 1 nM. Also, the Emax in assay [3] stood at 101%; in assay [4], 104%.

For the compound `CC[C@H](C)[C@H](NC(=O)[C@H](CC(C)C)NC(=O)[C@H](Cc1c[nH]c2ccccc12)NC(=O)[C@H](CCC(N)=O)NC(=O)[C@@H](NC(=O)[C@H](Cc1ccccc1)NC(=O)[C@H](C)NC(=O)[C@H](CCCCNC(=O)COCCOCCNC(=O)COCCOCCNC(=O)CC[C@H](NC(=O)CCCCCCCCCCCCCCCCCCC(=O)O)C(=O)O)NC(=O)[C@H](CCC(N)=O)NC(=O)[C@H](C)NC(=O)[C@@H](NC(=O)[C@H](CCCCN)NC(=O)[C@H](CC(=O)O)NC(=O)[C@H](CC(C)C)NC(=O)C(C)(C)NC(=O)[C@@H](NC(=O)[C@H](CO)NC(=O)[C@H](Cc1ccc(O)cc1)NC(=O)[C@H](CC(=O)O)NC(=O)[C@H](CO)NC(=O)[C@@H](NC(=O)[C@H](Cc1ccccc1)NC(=O)[C@@H](NC(=O)CNC(=O)[C@H](CCC(=O)O)NC(=O)CCNC(=O)C(C)(C)c1cccnc1)[C@@H](C)O)[C@@H](C)O)[C@@H](C)CC)[C@@H](C)CC)C(C)C)C(=O)N[C@@H](C)C(=O)NCC(=O)NCC(=O)N1CCC[C@H]1C(=O)N[C@@H](CO)C(=O)N[C@@H](CO)C(=O)NCC(=O)N[C@@H](C)C(=O)N1CCC[C@H]1C(=O)N1CCC[C@H]1C(=O)N1CCC[C@H]1C(=O)N[C@@H](CO)C(N)=O` [Compound 239] ({X1-βAla}-EGTFTSDYSI[Aib]LDKIAQK([AEEA-AEEA-γGlu-C20 diacid])AFVQWLIAGGPSSGAPPPS-NH2), the EC50 in assay [1] was above 1000 nM; in assay [2], below 1000 nM; in assay [3], 1 to 10 nM; in assay [4], below 0.1 nM. Further, the Emax in assay [3] turned out to be 99%; in assay [4], 91%.
